Columns and labels:
MDA-MB-231 cells = assay: Cell proliferation assay (CellTiter-Glo), MDA-MB-231; type: cell-based; settings: Homo sapiens, MDA-MB-231, 72 h, 72 h treatment, Celltiter-Glo luminescence
Outline: (§1)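 MDA-MB-231 (RPMI-1640/10% FBS) and EVSA-T (MEM/10% FBS) cells, 10000 cells/well, exposed 72 h to compound at […]. Viability read by CellTiter-Glo luminescence after 15 min at room temperature. IC50 from control-normalised curve fitting.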

EVSA-T cells = assay: Cell proliferation assay (CellTiter-Glo), EVSA-T; type: cell-based; settings: Homo sapiens, EVSA-T, 72 h, 72 h treatment, Celltiter-Glo luminescence
Outline: as §1

SMILES	IC50 (MDA-MB-231 cells) [nM]	IC50 (EVSA-T cells) [nM]
C[C@@H]1CN(CC(=O)N2CC(C)(C)c3c2cc(Cc2ccccc2F)c2ncnn32)[C@@H](CN2CCOC[C@H]2C)CN1 [Compound 38, 1-(4-(2-fluorobenzyl)-8,8-dimethyl-7,8-dihydro-6H-pyrrolo[2,3-e][1,2,4]triazolo[1,5-a]pyridin-6-yl)-2-((2R,5R)-5-methyl-2-(((R)-3-methylmorpholino)methyl)piperazin-1-yl)ethan-1-one]	150	6
C[C@@H]1CN(CC(=O)N2CC(C)(C)c3c2cc(Cc2ccc(F)cc2)c2nc(C(F)(F)F)cn32)[C@@H](CN2[C@H](C)COC[C@H]2C)CN1 [Compound 161, 2-((2R,5R)-2-(((3R,5R)-3,5-dimethylmorpholino)methyl)-5-methylpiperazin-1-yl)-1-(4-(4-fluorobenzyl)-8,8-dimethyl-2-(trifluoromethyl)-7,8-dihydro-6H-imidazo[1,2-a]pyrrolo[2,3-e]pyridin-6-yl)ethan-1-one]	120	30
C[C@@H]1CN(CC(=O)N2CC(C)(C)c3c2cc(Cc2ccc(F)cc2)c2c(C(N)=O)cnn32)[C@@H](CN2CCOC[C@H]2C)CN1 [Compound 149, 4-(4-fluorobenzyl)-8,8-dimethyl-6-(2-((2R,5R)-5-methyl-2-(((R)-3-methylmorpholino)methyl)piperazin-1-yl)acetyl)-7,8-dihydro-6H-pyrazolo[1,5-a]pyrrolo[2,3-e]pyridine-3-carboxamide]	100	7
C[C@@H]1CN(CC(=O)N2CC(C)(C)c3c2cc(Cc2ccc(F)cc2)c2nc(N4CCOC4=O)nn32)[C@@H](CN2CCOC[C@H]2C)CN1 [Compound 204, 3-(4-(4-fluorobenzyl)-8,8-dimethyl-6-(2-((2R,5R)-5-methyl-2-(((R)-3-methylmorpholino)methyl)piperazin-1-yl)acetyl)-7,8-dihydro-6H-pyrrolo[2,3-e][1,2,4]triazolo[1,5-a]pyridin-2-yl)oxazolidin-2-one]	44	14
C[C@@H]1CN(CC(=O)N2CC(C)(C)c3c2cc(Cc2ccc(F)cc2F)c2ncnn32)[C@@H](CN2CCOC[C@H]2C)CN1 [Compound 40, 1-(4-(2,4-difluorobenzyl)-8,8-dimethyl-7,8-dihydro-6H-pyrrolo[2,3-e][1,2,4]triazolo[1,5-a]pyridin-6-yl)-2-((2R,5R)-5-methyl-2-(((R)-3-methylmorpholino)methyl)piperazin-1-yl)ethan-1-one]	59	3
C[C@@H]1CN(CC(=O)N2CC3(CCOCC3)c3c2cc(Cc2ccc(F)cc2)c2ncnn32)[C@@H](CN2CCOC[C@H]2C)CN1 [Compound 180, 1-(4′-(4-fluorobenzyl)-2,3,5,6-tetrahydrospiro[pyran-4,8′-pyrrolo[2,3-e][1,2,4]triazolo[1,5-a]pyridin]-6′(7′H)-yl)-2-((2R,5R)-5-methyl-2-(((R)-3-methylmorpholino)methyl)piperazin-1-yl)ethan-1-one]	615	56
C[C@@H]1CN(CC(=O)N2CC(C)(C)c3c2cc(Cc2ccc(F)cc2)c2c(C#N)cnn32)[C@@H](CN2CCOC[C@H]2C)CN1 [Compound 105, 4-(4-fluorobenzyl)-8,8-dimethyl-6-(2-((2R,5R)-5-methyl-2-(((R)-3-methylmorpholino)methyl)piperazin-1-yl)acetyl)-7,8-dihydro-6H-pyrazolo[1,5-a]pyrrolo[2,3-e]pyridine-3-carbonitrile]	100	9
Cc1ncc2c(Cc3ccc(F)cc3)cc3c(n12)C(C)(C)CN3C(=O)CN1C[C@@H](C)NC[C@@H]1CN1CCOC[C@H]1C [Compound 2, 1-(4-(4-fluorobenzyl)-1,8,8-trimethyl-7,8-dihydro-6H-imidazo[1,5-a]pyrrolo[2,3-e]pyridin-6-yl)-2-((2R,5R)-5-methyl-2-(((R)-3-methylmorpholino)methyl)piperazin-1-yl)ethan-1-one]	110	13

Compounds with a lower IC50 (MDA-MB-231 cells), results first:

IC50 (MDA-MB-231 cells) [nM]	SMILES	IC50 (EVSA-T cells) [nM]
41	C[C@@H]1CN(CC(=O)N2CC(C)(C)c3c2cc(Cc2ccc(F)cc2)c2nn(CC(C)(C)O)c(=O)n32)[C@@H](CN2CC3CCC(C2)O3)CN1 [Compound 265, 6-(2-((2R,5R)-2-((8-oxa-3-azabicyclo[3.2.1]octan-3-yl)methyl)-5-methylpiperazin-1-yl)acetyl)-4-(4-fluorobenzyl)-2-(2-hydroxy-2-methylpropyl)-8,8-dimethyl-2,6,7,8-tetrahydro-1H-pyrrolo[2,3-e][1,2,4]triazolo[4,3-a]pyridin-1-one]	26.8
38	C[C@@H]1CN(CC(=O)N2CC(C)(C)c3c2cc(Cc2ccc(F)cc2)c2nn(Cc4ccccn4)c(=O)n32)[C@@H](CN2CCOC[C@H]2C)CN1 [Compound 192, 4-(4-fluorobenzyl)-8,8-dimethyl-6-(2-((2R,5R)-5-methyl-2-(((R)-3-methylmorpholino)methyl)piperazin-1-yl)acetyl)-2-(pyridin-2-ylmethyl)-2,6,7,8-tetrahydro-1H-pyrrolo[2,3-e][1,2,4]triazolo[4,3-a]pyridin-1-one]	7
38	C[C@@H]1CN(CC(=O)N2CC(C)(C)c3c2cc(Cc2ccc(F)cc2)c2nnc(C#N)n32)[C@@H](CN2CCOC[C@H]2C)CN1 [Compound 153, 4-(4-fluorobenzyl)-8,8-dimethyl-6-(2-((2R,5R)-5-methyl-2-(((R)-3-methylmorpholino)methyl)piperazin-1-yl)acetyl)-7,8-dihydro-6H-pyrrolo[2,3-e][1,2,4]triazolo[4,3-a]pyridine-1-carbonitrile]	5
26	C[C@@H]1CN(CC(=O)N2CC(C)(C)c3c2cc(Cc2ccc(F)cc2F)c2nn(C[C@H]4COCCO4)c(=O)n32)[C@@H](CN2CCOC[C@H]2C)CN1 [Compound 285, 2-(((S)-1,4-dioxan-2-yl)methyl)-4-(2,4-difluorobenzyl)-8,8-dimethyl-6-(2-((2R,5R)-5-methyl-2-(((R)-3-methylmorpholino)methyl)piperazin-1-yl)acetyl)-2,6,7,8-tetrahydro-1H-pyrrolo[2,3-e][1,2,4]triazolo[4,3-a]pyridin-1-one]	4.6
20	C[C@@H]1CN(CC(=O)N2CC(C)(C)c3c2cc(Cc2ccc(F)cc2)c2ncnn32)[C@@H](CN2Cc3cccc(F)c3C2=O)CN1 [Compound 207, 7-fluoro-2-(((2R,5R)-1-(2-(4-(4-fluorobenzyl)-8,8-dimethyl-7,8-dihydro-6H-pyrrolo[2,3-e][1,2,4]triazolo[1,5-a]pyridin-6-yl)-2-oxoethyl)-5-methylpiperazin-2-yl)methyl)isoindolin-1-one]	2
17	C[C@@H]1CN(CC(=O)N2CC(C)(C)c3c2cc(Cc2ccc(F)cc2)c2nc(-c4cncnc4)nn32)[C@@H](CN2CCOC[C@H]2C)CN1 [Compound 184, 1-(4-(4-fluorobenzyl)-8,8-dimethyl-2-(pyrimidin-5-yl)-7,8-dihydro-6H-pyrrolo[2,3-e][1,2,4]triazolo[1,5-a]pyridin-6-yl)-2-((2R,5R)-5-methyl-2-(((R)-3-methylmorpholino)methyl)piperazin-1-yl)ethan-1-one]	6
17	COCC(COC)n1nc2c(Cc3ccc(F)cc3)cc3c(n2c1=O)C(C)(C)CN3C(=O)CN1C[C@@H](C)NC[C@@H]1CN1CCOC[C@H]1C [Compound 261, 2-(1,3-dimethoxypropan-2-yl)-4-(4-fluorobenzyl)-8,8-dimethyl-6-(2-((2R,5R)-5-methyl-2-(((R)-3-methylmorpholino)methyl)piperazin-1-yl)acetyl)-2,6,7,8-tetrahydro-1H-pyrrolo[2,3-e][1,2,4]triazolo[4,3-a]pyridin-1-one]	3.2
15	C[C@@H]1CN(CC(=O)N2CC(C)(C)c3c2cc(Cc2ccc(F)cc2)c2nc(N(C)C=O)nn32)[C@@H](CN2CCOC[C@H]2C)CN1 [Compound 241, N-(4-(4-fluorobenzyl)-8,8-dimethyl-6-(2-((2R,5R)-5-methy 1-2-(((R)-3-methylmorpholino)methyl)piperazin-1-yl)acetyl)-7,8-dihydro-6H-pyrrolo[2,3-e][1,2,4]triazolo[1,5-a]pyridin-2-yl)-N-methylformamide]	6.3
14	C[C@@H]1CN(CC(=O)N2CC(C)(C)c3c2cc(Cc2ccc(F)cc2)c2nc(NC=O)nn32)[C@@H](CN2CCOC[C@H]2C)CN1 [Compound 239, N-(4-(4-fluorobenzyl)-8,8-dimethyl-6-(2-((2R,5R)-5-methyl-2-(((R)-3-methylmorpholino)methyl)piperazin-1-yl)acetyl)-7,8-dihydro-6H-pyrrolo[2,3-e][1,2,4]triazolo[1,5-a]pyridin-2-yl)formamide]	0.5
12	C[C@@H]1CN(CC(=O)N2CC(C)(C)c3c2cc(Cc2ccc(F)cc2)c2cnnn32)[C@@H](CN2CCOC[C@H]2C)CN1 [Compound 128, 1-(4-(4-fluorobenzyl)-8,8-dimethyl-7,8-dihydro-6H-pyrrolo[2,3-e][1,2,3]triazolo[1,5-a]pyridin-6-yl)-2-((2R,5R)-5-methyl-2-(((R)-3-methylmorpholino)methyl)piperazin-1-yl)ethan-1-one]	2
9	C[C@@H]1CN(CC(=O)N2CC(C)(C)c3c2cc(Cc2ccc(F)cc2F)c2nn(C(C)(C)CO)c(=O)n32)[C@@H](CN2CCOC[C@H]2C)CN1 [Compound 275, 4-(2,4-difluorobenzyl)-2-(1-hydroxy-2-methylpropan-2-yl)-8,8-dimethyl-6-(2-((2R,5R)-5-methyl-2-(((R)-3-methylmorpholino)methyl)piperazin-1-yl)acetyl)-2,6,7,8-tetrahydro-1H-pyrrolo[2,3-e][1,2,4]triazolo[4,3-a]pyridin-1-one]	3.1

Source: patent US20250179073A1, “TRICYCLIC HETEROCYCLE COMPOUNDS AS IAP ANTAGONISTS” (Ascentage Pharma (Suzhou) Co., Ltd., priority 2022, published 2025)
